Experiments:
[1] = test system: androgenetic alopezia; test: Hair growth material on bald spots in androgenetic alopezia (Example VI); format: in vivo; details: for hair growth on previously bald spot: 2% solution in 50% ethanol and 50% Tween 20, rubbed twice daily, 1 mg per cm^2, four weeks; for undesirable side effects: topical, twice daily, 2% solution
Protocol: A 2% solution of nor-ethisterone in 50% ethanol and 50% Tween 20, was utilized for the assistance in hair growth by androgenetic alopezia. The bald spots were rubbed twice daily with a sufficient amount of hair growth material to provide a concentration of 1 mg per cm^2 nor-ethisterone through the skin barrier to the receptor site.

[2] = target: T1, androgen receptor preparations of sebaceous glands (Mesocricetus auratus, UniProt A0A1U7QL32); test: Competitive binding analysis (displacement of tritium-marked R 1881); design: species or system Syrian hamster; details: for in vitro affinity at 50% blocking (rank order): displacement of 8 nM tritium-marked R 1881, FIG. 1; for affinity (RBA) for the androgen receptors, in words: displacement of tritium-marked R 1881
T1 construct: [3H]R1881 displacement with excess triamcinolone acetate
T1 sequence (A0A1U7QL32 1-900): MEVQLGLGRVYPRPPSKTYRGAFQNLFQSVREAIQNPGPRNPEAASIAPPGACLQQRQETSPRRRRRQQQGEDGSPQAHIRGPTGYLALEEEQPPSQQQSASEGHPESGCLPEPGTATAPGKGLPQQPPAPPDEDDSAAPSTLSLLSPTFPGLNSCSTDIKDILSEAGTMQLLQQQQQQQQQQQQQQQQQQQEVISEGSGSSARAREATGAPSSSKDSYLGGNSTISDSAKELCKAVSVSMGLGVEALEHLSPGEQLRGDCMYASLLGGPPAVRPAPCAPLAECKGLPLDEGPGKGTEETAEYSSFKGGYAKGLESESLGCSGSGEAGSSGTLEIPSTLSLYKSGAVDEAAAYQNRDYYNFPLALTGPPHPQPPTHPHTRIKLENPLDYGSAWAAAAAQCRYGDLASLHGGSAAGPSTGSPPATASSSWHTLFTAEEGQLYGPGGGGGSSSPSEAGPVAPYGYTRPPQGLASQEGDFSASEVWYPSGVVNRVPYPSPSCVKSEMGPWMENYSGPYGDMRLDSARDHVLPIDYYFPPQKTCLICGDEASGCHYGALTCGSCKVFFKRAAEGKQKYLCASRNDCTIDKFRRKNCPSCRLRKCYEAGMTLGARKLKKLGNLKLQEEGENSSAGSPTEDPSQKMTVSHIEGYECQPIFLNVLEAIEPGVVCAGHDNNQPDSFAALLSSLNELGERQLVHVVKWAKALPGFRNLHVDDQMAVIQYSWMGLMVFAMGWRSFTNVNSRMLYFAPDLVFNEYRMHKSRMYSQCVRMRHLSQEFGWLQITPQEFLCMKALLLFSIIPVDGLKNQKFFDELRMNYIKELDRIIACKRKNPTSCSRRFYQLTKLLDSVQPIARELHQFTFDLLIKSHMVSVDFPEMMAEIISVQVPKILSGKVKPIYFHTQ
From the text: The standardisation basis in competitive binding analysis is the concentration of the competitor which, can displace 50% of a radioactively labeled reference substance from the receptor. This is conditioned upon the assumption that a relative binding efficiency (RPA) is proof of a high […] in the test material.
The comparison of the in vivo sebum suppression with RBA to the androgen receptor in vitro, should give the key to the answer of whether the substance itself or metabolites thereof, are responsible for the activity.
For the competitive study the web material of five ear shells was gathered. After homogenization in buffer A (10 mM-Tris-HCl-pH 7.4; 1.5 mM EDTA; 5 mM monothiogylcerine) cytosol was obtained as a supernate after ultracentrification at 120×10^3 g for thirty minutes at 4° C. The protein content was adjusted to between 1 to 5 mg/ml with a buffer A.
After a reaction time of 12 hours at 4° C. to achieve equilibrium, the unbound steroid hormones were removed from the reaction mixture by means of dextrancoated activated charcoal suspension (0.5% activated charcoal and 0.05% detran in […] Tris-HCl-buffer; pH 7.4). An aliquot of the supernate after centrifugation was measured in a fluid scintillation counter.

[3] = target: T2, gestogen receptors (Ovis aries, UniProt A0ACI6RU96); test: Binding to gestogen receptors in a sheep uterus (FIG. 2)
T2 sequence (A0ACI6RU96 1-911): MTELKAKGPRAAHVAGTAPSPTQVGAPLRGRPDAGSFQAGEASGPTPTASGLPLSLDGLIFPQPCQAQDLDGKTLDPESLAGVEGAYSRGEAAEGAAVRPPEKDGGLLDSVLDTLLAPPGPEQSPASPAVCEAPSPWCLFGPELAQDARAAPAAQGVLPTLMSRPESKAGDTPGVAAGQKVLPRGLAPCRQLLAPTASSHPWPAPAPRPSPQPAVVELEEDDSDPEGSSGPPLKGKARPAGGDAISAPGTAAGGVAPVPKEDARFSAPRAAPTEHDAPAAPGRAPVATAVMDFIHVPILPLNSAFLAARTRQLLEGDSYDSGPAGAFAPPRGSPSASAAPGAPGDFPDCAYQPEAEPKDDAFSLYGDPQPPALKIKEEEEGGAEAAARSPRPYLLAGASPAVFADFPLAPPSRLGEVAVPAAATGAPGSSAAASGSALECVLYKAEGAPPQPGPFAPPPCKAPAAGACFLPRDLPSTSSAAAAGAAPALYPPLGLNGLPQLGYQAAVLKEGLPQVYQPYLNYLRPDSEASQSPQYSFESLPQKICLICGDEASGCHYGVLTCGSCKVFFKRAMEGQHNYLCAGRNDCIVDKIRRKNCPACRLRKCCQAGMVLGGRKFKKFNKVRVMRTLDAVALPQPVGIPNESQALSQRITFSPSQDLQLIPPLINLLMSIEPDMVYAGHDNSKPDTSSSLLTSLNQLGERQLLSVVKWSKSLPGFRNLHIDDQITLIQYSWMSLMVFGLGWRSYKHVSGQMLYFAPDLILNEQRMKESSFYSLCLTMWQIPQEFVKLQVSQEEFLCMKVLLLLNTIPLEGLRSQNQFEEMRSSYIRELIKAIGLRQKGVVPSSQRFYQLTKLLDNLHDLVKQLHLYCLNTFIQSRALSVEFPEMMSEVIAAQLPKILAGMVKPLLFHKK
From the text: These experiments relating to the competitive binding of different hormanal substances can only describe certain aspects of the binding kinetics, but not all aspects of the pharmacokinetics. It is thus necessary to test the biological effects of steroid hormones by in vivo methods.

[4] = test system: skin upper surface lipids; test: Human studies: skin surface lipid content after topical ethisterone lotion; format: in vivo
Protocol: A 2% ethisterone formulation was prepared in accordance with Example I. Five male and five female human test subjects took part in the experiment who were treated on their left foreheads with the ethisterone lotion. The subjects applied the lotion twice a day at a concentration of approximately 0.1 mg per cm^2 of ethisterone applied to the receptors.
The lipid content of the upper skin surface of both left and right forehead portions were measured prior to the onset of therepy (0 control), in the second and the fourth weeks of therapy.
Initially the replacement sum was determined. The skin was first cleaned with cigarette paper dipped in acetone and stroked six to eight times over the test area. After sixty minutes the skin lipids were removed from the skin portion of the following manner. Cigarette paper was placed by means of tweezers on the segment to be measured and on the cigarette paper was placed a mass of 280 grams having a surface area of 5 cm^2. Thereafter, the paper was eluted with a mixture comprising 70 parts of acetone and 30 parts of methanol. The thus produced eluate was evaporated to dryness and treated with phosphovanillic acid, thereafter the eluate was evaluated by gas chromatography. Previously, the gas chromatograph had been calibrated with 25 standard skin lipids (mono-di-, triglyceride, cholesterol as well as cholesterol esters, oleic acid esters, having 10 to 18 carbon atoms as well as waxes having up to 28 carbon atoms).
The eluate was also subjected, to thin layer chromomatography. It is noted that generally, speaking the standard substances may be regarded as representative of skin upper surface lipids.

[5] = ethisterone in oil-in-water emulsion applied to the skin (summary statement)

SMILES | hair growth on previously bald spot [1] | undesirable side effects [1] | in vitro affinity at 50% blocking (rank order) [2] | affinity (RBA) for the androgen receptors, in words [2] | binding affinity to gestogen receptors (comparison) [3] | lipid content on treated skin upper surface area less than untreated area ([4]; 2% ethisterone lotion twice a day on left forehead, approx. 0.1 mg per cm^2, four week treatment) | wax content reduced ([4]; 2% ethisterone lotion twice a day on left forehead, four week treatment) | reduction of lipids which comprise waxy substances (C20 to C28) [4, 5] | reduction of total lipid content of the skin from the initial value [4, 5]
CCCC1(O)CCC2C3CCC4CC(=O)CC(C)C4(C)C3CCC21C (stereo not drawn) [17-alpha-PM, 17-alpha-propyl-mesterolone] | practically the same result is obtained | no undesirable side effects were noted | R 1881, 17-alpha-PM, ethisterone, CPA, SL and dexamethasone | substantially higher affinity |  |  |  |  | 
C[C@@H]1C[C@H]2[C@@H]3CCC4=CC(=O)C=C[C@]4(C)[C@@]3(F)[C@@H](O)C[C@]2(C)[C@@]1(O)C(=O)CO [dexamethasone] |  |  | R 1881, 17-alpha-PM, ethisterone, CPA, SL and dexamethasone | may be disregarded |  |  |  |  | 
C#C[C@]1(O)CC[C@H]2[C@@H]3CCC4=CC(=O)CC[C@]4(C)[C@H]3CC[C@@]21C [ethisterone, 17-alpha-hydroxypregen-4-en-20-yn-3-one] |  |  | R 1881, 17-alpha-PM, ethisterone, CPA, SL and dexamethasone | satisfactory middle place between 17-alpha-PM and synthetic R 1881 | nor-ethisterone has a higher binding affinity than progesterone and ethisterone | 25% | 75% | 75 % by weight | about 25%
C#C[C@]1(O)CC[C@H]2[C@@H]3CCC4=CC(=O)CC[C@@H]4[C@H]3CC[C@@]21C [nor-ethisterone, 17-hyroxy-19-norpregn-4-en-20-yn-3-one] | a hair fuzz is noted on the previously bald spot | no undesirable side effects were noted |  |  | higher binding affinity than progesterone and ethisterone |  |  |  | 
CC(=O)[C@H]1CC[C@H]2[C@@H]3CCC4=CC(=O)CC[C@]4(C)[C@H]3CC[C@]12C [progesterone] |  |  |  |  | nor-ethisterone has a higher binding affinity than progesterone and ethisterone |  |  |  | 

— patent US5094857A, “Treatment of acne or androgenetic alopecia by topical administration of ethisterone” (priority 1987, dated 1992)
